Reference: US5304367A, “In vivo brain imaging agent and method for diagnosis of psychiatric disorders” (New York University, priority 1990, dated 1994)
Like-named read-outs stand apart in the source and are kept apart here.

How the values were obtained:
[1] = system: βAR; assay type: binding, human
[2] = whole body distribution, mice, 2 μCi; assay type: in vivo, mouse
Experimental: In a subsequent study, whole body distribution was examined in mice following tail vein injection of 2 μCi ^125 I-iodopindolol. Animals were sacrificed at various time points up to 22 hours post-injection. Percent injected dose (%ID) was determined in 11 organs, blood and urine. At one minute, lungs contained the highest %ID (17%), heart 3-4 %ID and brain 0.3%ID.

## CC(C)NCC(O)COc1cccc2[nH]cc([125I])c12 (stereo not drawn) [^125 I-iodopindolol]
[1]; cingulate gyrus, external band, female, n=4
  specific binding: 1.20 ± 0.31 fmol [^125 I]iodopindolol/mg tissue
[1]; cingulate gyrus, external band, male, n=10
  specific binding: 0.99 ± 0.18 fmol [^125 I]iodopindolol/mg tissue
[1]; cingulate gyrus, internal band, female, n=4
  specific binding: 1.31 ± 0.24 fmol [^125 I]iodopindolol/mg tissue
[1]; cingulate gyrus, internal band, male, n=10
  specific binding: 0.87 ± 0.16 fmol [^125 I]iodopindolol/mg tissue
[1]; gyrus rectus, external band, female, n=3
  specific binding: 1.42 ± 0.13 fmol [^125 I]iodopindolol/mg tissue
[1]; gyrus rectus, external band, male, n=9
  specific binding: 0.93 ± 0.18 fmol [^125 I]iodopindolol/mg tissue
[1]; gyrus rectus, internal band, female, n=3
  specific binding: 1.24 ± 0.23 fmol [^125 I]iodopindolol/mg tissue
[1]; gyrus rectus, internal band, male, n=9
  specific binding: 0.80 ± 0.13 fmol [^125 I]iodopindolol/mg tissue
[1]; inferior frontal gyrus, external band, female, n=5
  specific binding: 1.08 ± 0.19 fmol [^125 I]iodopindolol/mg tissue
[1]; inferior frontal gyrus, external band, male, n=11
  specific binding: 0.86 ± 0.13 fmol [^125 I]iodopindolol/mg tissue
[1]; inferior frontal gyrus, internal band, female, n=5
  specific binding: 0.99 ± 0.16 fmol [^125 I]iodopindolol/mg tissue
[1]; inferior frontal gyrus, internal band, male, n=11
  specific binding: 0.78 ± 0.13 fmol [^125 I]iodopindolol/mg tissue
[1]; medial frontal gyrus, external band, female, n=5
  specific binding: 1.36 ± 0.23 fmol [^125 I]iodopindolol/mg tissue
[1]; medial frontal gyrus, external band, male, n=13
  specific binding: 0.77 ± 0.12 fmol [^125 I]iodopindolol/mg tissue
[1]; medial frontal gyrus, internal band, female, n=5
  specific binding: 1.09 ± 0.16 fmol [^125 I]iodopindolol/mg tissue
[1]; medial frontal gyrus, internal band, male, n=12
  specific binding: 0.71 ± 0.10 fmol [^125 I]iodopindolol/mg tissue
[1]; orbital gyri, external band, female, n=4
  specific binding: 1.46 ± 0.25 fmol [^125 I]iodopindolol/mg tissue
[1]; orbital gyri, external band, male, n=11
  specific binding: 0.77 ± 0.12 fmol [^125 I]iodopindolol/mg tissue
[1]; orbital gyri, internal band, female, n=4
  specific binding: 1.24 ± 0.18 fmol [^125 I]iodopindolol/mg tissue
[1]; orbital gyri, internal band, male, n=10
  specific binding: 0.70 ± 0.10 fmol [^125 I]iodopindolol/mg tissue
[1]; superior frontal gyrus, external band, female, n=6
  specific binding: 1.48 ± 0.25 fmol [^125 I]iodopindolol/mg tissue
[1]; superior frontal gyrus, external band, male, n=16
  specific binding: 0.87 ± 0.09 fmol [^125 I]iodopindolol/mg tissue
[1]; superior frontal gyrus, internal band, female, n=6
  specific binding: 1.24 ± 0.12 fmol [^125 I]iodopindolol/mg tissue
[1]; superior frontal gyrus, internal band, male, n=16
  specific binding: 0.82 ± 0.07 fmol [^125 I]iodopindolol/mg tissue
[1]; white matter, female, n=6
  specific binding: 0.78 ± 0.09 fmol [^125 I]iodopindolol/mg tissue
[1]; white matter, male, n=16
  specific binding: 0.46 ± 0.04 fmol [^125 I]iodopindolol/mg tissue
[2]; between 2-4 hours post-injection
  radioactivity in all organs: fell in all organs
[2]; one minute, 2 μCi tail vein
  brain, percent injected dose (%ID): 0.3 %ID
  heart, percent injected dose (%ID): 3-4 %ID
  lungs, percent injected dose (%ID): 17 %ID
[2]; until two hours post-injection
  brain levels, time course: remained stable until two hours post-injection
  lung radioactivity: declined
  stomach and intestine radioactivity: increased
